Structures can show the parent of a compound that is named as a salt.
Experiments:
PDE IV, HL60 cells = experiment: Isolated enzyme, inhibition of PDE IV from HL60 cells; type: biochemical; conditions: 0.1 μM [3H]-cAMP, pH 7.5, 30° C.; "Ki PDEIV HL60 at 1 μM"; read-out: approximate Ki value (PDE IV HL60)
Description: 1. Isolated Enzyme The potency and selectivity of the compounds of the invention was determined using a battery of distinct PDE isoenzymes as follows: iv. PDE IV, HL60 cells. The enzymes were purified to kinetic homogeneity using standard chromatographic techniques. Phosphodiesterase activity was assayed as follows. The reaction was conducted in 150 μl of standard mixture containing (final concentrations): 50 mM TES-NaOH buffer (pH 7.5), 10 mM MgCl2, 0.1 μM [^3 H]-cAMP and vehicle or various concentrations of the test compounds. The reaction was initiated by addition of enzyme and conducted at 30° C. for between 5 to 30 mins. […] An aliquot of the sample was then applied to a column of neutral alumina and the […] eluted with 10 ml 0.1 TES-NaOH buffer (pH8). […] Recovery of [3H]-5'AMP was determined using the [^14 C]-5'AMP and all assays were conducted in the linear range of the reaction.

right atrial muscle = conditions: reference substances, general statement; cited from earlier work
papillary muscle = conditions: reference substances, general statement; cited from earlier work
[1] = used in asthma as a bronchodilator; cited from earlier work

SMILES	Ki (PDE IV, HL60 cells)	direct chronotropic effect (reference PDE inhibitors) (right atrial muscle)	direct inotropic effect (reference PDE inhibitors) (papillary muscle)	also measured
COc1ccc(-c2cncc3ccccc23)cc1OC1CCCC1 [Example 2, 4-(3-Cyclopentyloxy-4-methoxyphenyl)isoquinoline]	~180 nM			
COc1ccc(-c2cccnc2)cc1OC1CCCC1 [Example 4, 3-(3-Cyclopentyloxy-4-methoxyphenyl)pyridine hydrochloride]	~270 nM			
COc1ccc(-c2cccc([N+](=O)[O-])c2)cc1OC1CCCC1 [Example 7, 2-Cyclopentyloxy-4-(3-nitrophenyl)anisole]	~250 nM			
Cc1[nH]c(=O)c(C#N)cc1-c1ccncc1 [milrinone]		positive chronotropic and inotropic effects	positive chronotropic and inotropic effects	
COc1ccc(C2CNC(=O)C2)cc1OC1CCCC1 (centres unmarked) [rolipram]		do not have any direct effects	do not have any direct effects	
Cn1c(=O)c2[nH]cnc2n(C)c1=O [theophylline]				cardiovascular changes [1]: significant cardiovascular changes such as tachycardia

From patent US6080790A, “Tri-substituted phenyl derivatives and processes for their preparations” (priority 1992, dated 2000)
